From patent US9255110B2 (Hoffmann-La Roche Inc., priority 2010, dated 2016)
Each block holds one molecule with its values, some of them ahead of it.

Assays:
Type in all cases: biochemical
[1] = target: IRAK-4 (Homo sapiens (Human), UniProt Q9NWZ3); test: In vitro IRAK-4 kinase assay; conditions: purified recombinant IRAK-4, 50 uM ATP, 33P peptide phosphorylation
How it was run: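 Recombinant IRAK-4 or IRAK-1 incubated with 250 uM synthetic peptide in MOPS pH7.2 kinase buffer with 50 uM ATP, 20 mM MgCl2 and γ-33P ATP for the indicated time. Phosphorylated peptide captured on phosphocellulose, washed with phosphoric acid, quantified by scintillation counting.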

[2] = target: IRAK-1 (Homo sapiens (Human), UniProt P51617); test: In vitro IRAK-1 kinase assay; conditions: purified recombinant IRAK-1, 50 uM ATP, 33P peptide phosphorylation
Chain of IRAK-1 (P51617 whole entry, species assumed): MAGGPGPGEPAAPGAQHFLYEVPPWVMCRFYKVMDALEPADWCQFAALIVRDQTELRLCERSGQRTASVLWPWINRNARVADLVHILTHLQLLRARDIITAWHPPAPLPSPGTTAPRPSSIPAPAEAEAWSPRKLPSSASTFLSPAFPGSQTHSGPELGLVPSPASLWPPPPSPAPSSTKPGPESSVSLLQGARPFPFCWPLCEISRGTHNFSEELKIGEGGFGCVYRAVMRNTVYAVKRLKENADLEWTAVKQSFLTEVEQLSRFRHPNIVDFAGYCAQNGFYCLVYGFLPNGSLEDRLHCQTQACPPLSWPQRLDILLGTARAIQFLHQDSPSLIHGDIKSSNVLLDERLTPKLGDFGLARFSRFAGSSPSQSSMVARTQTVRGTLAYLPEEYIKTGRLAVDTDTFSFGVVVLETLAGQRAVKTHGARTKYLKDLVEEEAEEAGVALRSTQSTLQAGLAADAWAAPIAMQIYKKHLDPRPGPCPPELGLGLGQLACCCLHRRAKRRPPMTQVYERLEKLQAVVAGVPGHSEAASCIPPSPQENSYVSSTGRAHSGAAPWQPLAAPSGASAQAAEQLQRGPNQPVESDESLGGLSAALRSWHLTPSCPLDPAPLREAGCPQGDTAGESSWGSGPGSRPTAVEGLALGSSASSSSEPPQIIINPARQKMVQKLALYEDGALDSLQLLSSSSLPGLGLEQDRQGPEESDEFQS
Description: Purified recombinant IRAK-4 protein was incubated with 250 uM synthetic peptide ([…]) in 30 ul of kinase buffer including (20 mM MOPS pH7.2, 25 mM beta glycerol phosphate, 5 mM EGTA, 1 mM sodium orthovanadate, 1 mM DTT, 50 uM ATP, 20 mM MgCl2, 10 uCi γ-^33P, 0.1% BSA) for the indicated time. For purified recombinant IRAK-1 protein kinase assay, 50 uM ATP was used. A 25 ul aliquot of the reaction mixture was transferred on to p81 phosphocellulose squares (Upstate Biotechnology, Lake Placid, N.Y.). The assay squares were washed three times with 0.75% phosphoric acid and once with acetone. Enzyme activity was measured by determining the bound radioactivity by liquid scintillation counting.

[3] = target: human full length SYK (Homo sapiens (Human), UniProt P43405); test: In vitro SYK kinase assay; conditions: 20 uM ATP, 33P peptide phosphorylation
Description: Spleen tyrosine kinase (SYK) is a tyrosine kinase that plays an important role in B cell signal transduction. SYK activity is measured by phosphorylation of a peptide substrate (Biotin-[…]) with [gamma-^33P] ATP. The enzyme reaction was conducted at 20 uM ATP with 0.05 uCi [gamma-^33P]ATP (2 uCi for 40 ul assay) and 10 uM peptide substrate at final volume of 40 ul in buffer containing 50 mM Hepes, pH 7.2, 1 mM dithiothreitol, 10 mM MgCl2, 100 uM Na3VO4, 0.1% BSA and 10% DMSO. The enzyme assay was carried out with human full length SYK in the presence or absence of ten compound concentrations. SYK and compound were pre-incubated for 10 minutes. Then, the enzymatic reaction was initiated by addition of ATP and peptide substrate. The reaction mixture was incubated at room temperature for 30 minutes. At the end of incubation, the reaction was terminated by transferring 25 ul of the reaction mixture to 100 ul of 10% streptavidin slurry containing 100 mM EDTA. The reaction product was captured on the affinity resin and sequentially washed on a filtration plate (Millipore, MABVNOB50) with 2M NaCl, 2M M NaCl in 1% phosphoric acid and water to remove free radio nucleotide. Then the incorporation of ^33P into peptide substrate was quantified on a microplate scintillation counter. Compound inhibition potency on SYK was measured by IC50 value generated from ten concentration inhibition curve fitted into the 3-parameter model: % inhibition=Maximum/(1+(IC50/[Inhibitor])^slope). Data were analyzed on Microsoft Excel for parameter estimation.

Chain of IRAK-4 (Q9NWZ3 whole entry, species assumed): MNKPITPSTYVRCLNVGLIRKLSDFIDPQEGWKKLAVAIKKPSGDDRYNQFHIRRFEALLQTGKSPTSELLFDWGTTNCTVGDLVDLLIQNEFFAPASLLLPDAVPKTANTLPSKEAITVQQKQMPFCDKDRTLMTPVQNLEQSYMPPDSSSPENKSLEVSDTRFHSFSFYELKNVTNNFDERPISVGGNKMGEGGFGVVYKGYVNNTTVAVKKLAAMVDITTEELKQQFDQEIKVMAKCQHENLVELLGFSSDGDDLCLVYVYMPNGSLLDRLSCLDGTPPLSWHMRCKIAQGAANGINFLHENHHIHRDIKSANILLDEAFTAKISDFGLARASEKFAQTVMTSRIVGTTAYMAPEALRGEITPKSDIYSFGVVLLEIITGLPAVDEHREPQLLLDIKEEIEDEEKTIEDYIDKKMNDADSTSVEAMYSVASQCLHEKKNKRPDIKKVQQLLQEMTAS

SMILES: O=C(Nc1cc2ccccc2cc1OC1CCC(O)CC1)c1cnn2cccnc12 (stereo not drawn) [Example 55, Pyrazolo[1,5-alpha]pyrimidine-3-carboxylic acid [3-(4-hydroxy-cyclohexyloxy)-napthalen-2-yl]-amide]
IC50 [1]: 124 nM | IC50 [2]: 817 nM | IC50 [3]: 628 nM

SMILES: O=C(Nc1cc(Cl)ccc1OC1CCC(O)C1)c1cnn2cccnc12 (stereo not drawn) [Example 83, Pyrazolo[1,5-alpha]pyrimidine-3-carboxylic acid [5-chloro-2-(3-hydroxy-cyclopentyloxy)-phenyl]-amide]
IC50 [1]: 361 nM | IC50 [3]: 656 nM

SMILES: O=C(Nc1cc(Cl)ccc1OC1CCC(O)CC1)c1cnn2cccnc12 (stereo not drawn) [Example 90, Pyrazolo[1,5-alpha]pyrimidine-3-carboxylic acid [5-chloro-2-(4-hydroxy-cyclohexyloxy)-phenyl]-amide]
IC50 [1]: 459 nM | IC50 [3]: 806 nM

Second part, the molecule after the results:

IC50 [1]: 10 nM | IC50 [2]: 712 nM | IC50 [3]: 17 nM
SMILES: COc1cc2ncccc2cc1NC(=O)c1csc2cnc(NCCN)nc12

IC50 [1]: 24 nM | IC50 [2]: 760 nM | IC50 [3]: 449 nM
SMILES: CC(O)CC(C)Oc1cc2ncccc2cc1NC(=O)c1csc2cncnc12 (stereo not shown)

IC50 [1]: 74 nM | IC50 [2]: 575 nM | IC50 [3]: 810 nM
SMILES: COc1cc2ncccc2cc1NC(=O)c1csc2cnc(NC3CC3)nc12 [Example 43, 2-Cyclopropylamino-thieno[3,2-d]pyrimidine-7-carboxylic acid (7-methoxy-quinolin-6-yl)-amide]

IC50 [1]: 103 nM | IC50 [2]: 529 nM | IC50 [3]: 376 nM
SMILES: NCCCOc1cc2ncccc2cc1NC(=O)c1csc2cncnc12 [Example 51, Thieno[3,2-d]pyrimidine-7-carboxylic acid [7-(3-amino-propoxy)-quinolin-6-yl]-amide]

IC50 [1]: 107 nM | IC50 [2]: 813 nM | IC50 [3]: 350 nM
SMILES: COc1ccc(Cl)cc1NC(=O)c1csc2cnc(NCCN)nc12 [Example 53]
